US8389508B2 (Glaxo Group Limited, priority 2010, dated 2013)
Counter-ions that a name gives are not always drawn.

Key:
[1] = target: T1, human Endothelial Differentiation Gene 1 (EDG1), S1P1 receptor (Homo sapiens, UniProt P21453); experiment: S1P1 Assay (Tango EDG1-bla/U2OS beta-lactamase reporter, agonist dose response); format: cell-based; settings: EDG1-bla/U2OS cells, blue/green emission ratio, 10 point dose response, free base or salt form; read-out: pEC50 (S1P1 assay) (converted)
T1 construct: TEV protease site; Gal4-VP16 transcription factor; expressed in transfected cells; host or cells: EDG1-bla/U2OS (Tango GPCR-bla U2OS parental cell line)
Method in brief: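 U2OS Tango cells with human EDG1 coupled to TEV site/Gal4-VP16 beta-lactamase reporter, serum-starved 24 h, then exposed overnight at 37 °C to 10-point compound dilutions. CCF4-AM FRET substrate 2 h RT; 460/530 nm ratio normalised to agonist and DMSO controls, sigmoidal fit; intrinsic activity relative to a reference compound set at 100%.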

[2] = target: T2, human Endothelial Differentiation G-protein Coupled Receptor 3 (EDG3), S1P3 receptor (Homo sapiens, UniProt Q99500); experiment: S1P3 Assay (GeneBLAzer EDG3-Ga15-NFAT-bla HEK 293T beta-lactamase reporter, agonist dose response); format: cell-based; settings: EDG3-Ga15-NFAT-bla HEK 293T cells, blue/green emission ratio, 10 point dose response, free base or salt form; read-out: pEC50 (S1P3 assay) (converted)
T2 construct: expressed in transfected cells; host or cells: GeneBLAzer EDG3-Ga15-NFAT-bla HEK 293T
Method in brief: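 HEK 293T cells stably expressing human EDG3 with Ga15 and NFAT-beta-lactamase reporter, ~10,000 cells/well, exposed overnight at 37 °C to 10-point compound doses in charcoal-stripped serum medium. CCF4-AM substrate loaded 2 h at room temperature; 460/530 nm ratio normalized to DMSO and agonist controls, sigmoidal fit; intrinsic activity relative to reference agonist maximum (100%).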

[3] = clinical studies, Kappos et al 2006; cited from earlier work

T1 sequence (P21453 whole entry, the tested form may be a part): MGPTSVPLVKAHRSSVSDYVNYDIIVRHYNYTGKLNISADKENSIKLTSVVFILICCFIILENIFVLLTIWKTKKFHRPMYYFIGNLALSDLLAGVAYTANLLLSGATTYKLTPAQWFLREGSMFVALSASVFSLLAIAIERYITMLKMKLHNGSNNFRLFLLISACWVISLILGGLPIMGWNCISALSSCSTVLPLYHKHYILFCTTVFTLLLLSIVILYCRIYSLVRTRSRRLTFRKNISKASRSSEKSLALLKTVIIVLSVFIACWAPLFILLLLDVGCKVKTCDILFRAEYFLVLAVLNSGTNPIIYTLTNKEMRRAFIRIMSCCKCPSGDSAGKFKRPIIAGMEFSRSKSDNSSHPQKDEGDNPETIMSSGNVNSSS
T2 sequence (Q99500 whole entry): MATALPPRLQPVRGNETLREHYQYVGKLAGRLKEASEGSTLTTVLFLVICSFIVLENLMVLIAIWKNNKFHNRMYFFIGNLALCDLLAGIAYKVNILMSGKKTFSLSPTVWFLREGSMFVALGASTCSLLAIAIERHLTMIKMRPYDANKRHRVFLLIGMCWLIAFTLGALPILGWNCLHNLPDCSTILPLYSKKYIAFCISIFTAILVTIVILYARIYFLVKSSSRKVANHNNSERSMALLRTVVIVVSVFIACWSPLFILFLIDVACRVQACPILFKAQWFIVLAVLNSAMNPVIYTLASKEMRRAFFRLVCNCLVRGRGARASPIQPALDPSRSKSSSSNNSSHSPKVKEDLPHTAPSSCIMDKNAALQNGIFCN

Cc1c(CCN2CCC(C(=O)O)CC2)cccc1-c1nnc(-c2ccc(OC(C)C)c(Cl)c2)s1 [Example 58, 1-{2-[3-(5-{3-chloro-4-[(1-methylethyl)oxy]phenyl}-1,3,4-thiadiazol-2-yl)-2-methylphenyl]ethyl}-4-piperidinecarboxylic acid]
EC50 [1]: ≤ 10 nM
EC50 [2]: > 3160 nM

CCc1c(CCN2CCCC(C(=O)O)C2)cccc1-c1cnc(-c2ccc(OC(C)C)c(C#N)c2)s1 (centres unmarked) [Example 92]
EC50 [1]: < 1 nM
EC50 [2]: > 3160 nM

CCc1c(CCN2CCC[C@H](C(=O)O)C2)cccc1-c1nnc(-c2ccc(OC(C)C)c(Cl)c2)s1 [Example 57]
EC50 [1]: < 1 nM
EC50 [2]: > 3160 nM

CCc1c(CN2CC(C(=O)O)C2)cccc1-c1nnc(-c2ccc(CC(C)C)c(C#N)c2)s1 [Example 9, 1-[(3-{5-[3-cyano-4-(2-methylpropyl)phenyl]-1,3,4-thiadiazol-2-yl}-2-ethylphenyl)methyl]-3-azetidinecarboxylic acid trifluoroacetate]
EC50 [1]: < 1 nM
EC50 [2]: > 10000 nM

CCCCCCCCc1ccc(CCC(N)(CO)CO)cc1 [FTY720]
bradycardia on treatment [3]: bradycardia in the first 24 hours of treatment

CCc1c(CCN2CCCC(C(=O)O)C2)cccc1-c1nsc(-c2ccc(OC(C)C)c(Cl)c2)n1 (centres unmarked) [Example 70]
EC50 [1]: < 1 nM
EC50 [2]: > 3160 nM

CCc1c(CN2CCC(C(=O)O)C2)cccc1-c1cnc(-c2ccc(OC(C)C)c(C#N)c2)s1 (centres unmarked) [Example 83]
EC50 [1]: ≤ 10 nM
EC50 [2]: > 10000 nM

CCc1c(CCCN2CC(C(=O)O)C2)cccc1-c1cnc(-c2ccc(OC(C)C)c(C#N)c2)s1 [Example 93, 1-{3-[3-(2-{3-cyano-4-[(1-methylethyl)oxy]phenyl}-1,3-thiazol-5-yl)-2-ethylphenyl]propyl}-3-azetidinecarboxylic acid trifluoroacetate]
EC50 [1]: < 1 nM
EC50 [2]: > 3160 nM

CCc1c(CCN2CC(C(=O)O)C2)cccc1-c1cnc(-c2ccc(OC(C)C)c(Cl)c2)s1 [Example 41, 1-{2-[3-(2-{3-chloro-4-[(1-methylethyl)oxy]phenyl}-1,3-thiazol-5-yl)-2-ethylphenyl]ethyl}-3-azetidinecarboxylic acid trifluoroacetate]
EC50 [1]: < 1 nM
EC50 [2]: > 3160 nM

CCc1c(CCN2CCC[C@H]2C(=O)O)cccc1-c1nnc(-c2ccc(CC(C)C)c(C#N)c2)s1 [Example 59, 1-[2-(3-{5-[3-cyano-4-(2-methylpropyl)phenyl]-1,3,4-thiadiazol-2-yl}-2-ethylphenyl)ethyl]-L-proline]
EC50 [1]: ≤ 10 nM
EC50 [2]: > 10000 nM

CCc1c(CCN2CCC(C(=O)O)CC2)cccc1-c1cnc(-c2ccc(OC(C)C)c(C#N)c2)s1 [Example 37, 1-{2-[3-(2-{3-cyano-4-[(1-methylethyl)oxy]phenyl}-1,3-thiazol-5-yl)-2-ethylphenyl]ethyl}-4-piperidinecarboxylic acid trifluoroacetate]
EC50 [1]: < 1 nM
EC50 [2]: 933 nM

CCc1c(CC2CCN(CC(=O)O)CC2)cccc1-c1nsc(-c2ccc(OC(C)C)c(Cl)c2)n1 [Example 105, (4-{[3-(5-{3-chloro-4-[(1-methylethyl)oxy]phenyl}-1,2,4-thiadiazol-3-yl)-2-ethylphenyl]methyl}-1-piperidinyl)acetic acid trifluoroacetate]
EC50 [1]: < 100 nM
EC50 [2]: > 10000 nM

CCc1c(CCN2CC[C@H](C(=O)O)C2)cccc1-c1nsc(-c2ccc(CC(C)C)c(C#N)c2)n1 [Example 79]
EC50 [1]: ≤ 10 nM
EC50 [2]: > 3160 nM

CCc1c(CCN2CCC(C(=O)O)C2)cccc1-c1nsc(-c2ccc(CC(C)C)c(C#N)c2)n1 (centres unmarked) [Example 78]
EC50 [1]: ≤ 10 nM
EC50 [2]: > 3160 nM

CCc1c(CCN2C[C@H](O)C[C@H]2C(=O)O)cccc1-c1nnc(-c2ccc(OC(C)C)c(Cl)c2)s1 [Example 55]
EC50 [1]: ≤ 10 nM
EC50 [2]: > 10000 nM

COc1c(CCN2CCC(C(=O)O)CC2)cccc1-c1nsc(-c2ccc(OC(C)C)c(Cl)c2)n1 [Example 73, 1-{2-[3-(5-{3-chloro-4-[(1-methylethyl)oxy]phenyl}-1,2,4-thiadiazol-3-yl)-2-(methyloxy)phenyl]ethyl}-4-piperidinecarboxylic acid trifluoroacetate]
EC50 [1]: ≤ 10 nM
EC50 [2]: > 3160 nM

CCc1c(CCN2CC[C@H](C(=O)O)C2)cccc1-c1nnc(-c2ccc(CC(C)C)c(C#N)c2)s1 [Example 62]
EC50 [1]: < 1 nM
EC50 [2]: > 3160 nM

CCc1c(CCN2CC(C(=O)O)C2)cccc1-c1nsc(-c2ccc(OC(C)C)c(C#N)c2)n1 [Example 26, 1-{2-[3-(5-{3-cyano-4-[(1-methylethyl)oxy]phenyl}-1,2,4-thiadiazol-3-yl)-2-ethylphenyl]ethyl}-3-azetidinecarboxylic acid trifluoroacetate]
EC50 [1]: < 1 nM
EC50 [2]: > 3160 nM

CCc1c(CCN2CCC(C(=O)O)C2)cccc1-c1nnc(-c2ccc(CC(C)C)c(C#N)c2)s1 (centres unmarked) [Example 61]
EC50 [1]: < 1 nM
EC50 [2]: > 3160 nM

CCc1c(CN2CCC(C(=O)O)CC2)cccc1-c1cnc(-c2ccc(CC(C)C)c(C#N)c2)s1 [Example 42, 1-[(3-{2-[3-cyano-4-(2-methylpropyl)phenyl]-1,3-thiazol-5-yl}-2-ethylphenyl)methyl]-4-piperidinecarboxylic acid trifluoroacetate]
EC50 [1]: ≤ 10 nM
EC50 [2]: > 10000 nM

CCc1c(CCN2CCCC(C(=O)O)C2)cccc1-c1nnc(-c2ccc(CC(C)C)c(C#N)c2)s1 (centres unmarked) [Example 63]
EC50 [1]: < 1 nM
EC50 [2]: > 3160 nM

CCc1c(CN2CCC(C(=O)O)CC2)cccc1-c1cnc(-c2ccc(OC(C)C)c(C(F)(F)F)c2)s1 [Example 32, 1-[(2-ethyl-3-{2-[4-[(1-methylethyl)oxy]-3-(trifluoromethyl)phenyl]-1,3-thiazol-5-yl}phenyl)methyl]-4-piperidinecarboxylic acid]
EC50 [1]: < 1 nM
EC50 [2]: > 3160 nM

CCc1c(CCN2CCC[C@H]2C(=O)O)cccc1-c1nnc(-c2ccc(OC(C)C)c(Cl)c2)s1 [Example 52]
EC50 [1]: < 100 nM
EC50 [2]: > 10000 nM

Cc1c(CCN2CCC(C(=O)O)CC2)cccc1-c1nsc(-c2ccc(OC(C)C)c(Cl)c2)n1 [Example 74, 1-{2-[3-(5-{3-chloro-4-[(1-methylethyl)oxy]phenyl}-1,2,4-thiadiazol-3-yl)-2-methylphenyl]ethyl}-4-piperidinecarboxylic acid]
EC50 [1]: < 1 nM
EC50 [2]: > 3160 nM
